Assay results: ChEMBL document CHEMBL1201862, “PubChem BioAssay data set” (2004)
Calls of active or inactive are those of the source.

Tests used:
[1] = NIH-3T3 fibroblast cytotoxicity, dose response, cytotoxicity control, cell-based, fluorescence, Alamar Blue, secondary assay (AID 2327); type: functional;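 also: NIH-3T3 mouse fibroblasts cultured with fluconazole at 8 µg/mL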
[2] = luciferase reporter signal suppression in cells – H4 neuroglioma cells, luminescence, dose response (AID 1990); type: functional, cell-based
[3] = Luminescence Cell-Based Dose Response HTS to Identify Inhibitors of 5'UTR Stem-Loop Driven Prion Protein mRNA Translation in H4 Neuroglioblastoma Cells. [Related pubchem assays: 1827 (Project Summary), 1813 (Primary HTS)]; type: functional
[4] = alpha-synuclein stem-loop luciferase translation blockers – H4 neuroglioma cells, luminescence, confirmation (AID 1988); type: functional, cell-based
[5] = fluconazole-exposed Candida albicans growth modulators – fluorescence, retest, confirmation (AID 2467); type: functional, cell-based
[6] = Trypanosoma cruzi growth suppression in host cells – NIH3T3 host cells, beta-gal luminescence, confirmation (AID 2044); type: functional, cell-based;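 also: intracellular parasites grown in NIH/3T3 mouse fibroblasts as host cells; luminescent beta-galactosidase reporter signal from transgenic T. cruzi replicating inside host cells; inhibitors lower the luminescence signal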
[7] = target: T1, Serine/threonine-protein phosphatase (Candida dubliniensis (strain CD36 / CBS 7987 / NCPF 3949 / NRRLY-17841) (Yeast), UniProt B9W6M3); assay: blockers of CaCl2-induced CDRE-lacZ signaling – S. cerevisiae, luminescence, secondary, dose response (AID 2388); type: functional, cell-based;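 also: yeast reporter cells carrying a calcineurin-responsive lacZ construct stimulated with calcium chloride; luminescent beta-galactosidase reporter signal in whole cells rather than isolated phosphatase activity; potency for inhibition where a drop in reporter signal means calcineurin blockade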
T1 sequence (B9W6M3 whole entry): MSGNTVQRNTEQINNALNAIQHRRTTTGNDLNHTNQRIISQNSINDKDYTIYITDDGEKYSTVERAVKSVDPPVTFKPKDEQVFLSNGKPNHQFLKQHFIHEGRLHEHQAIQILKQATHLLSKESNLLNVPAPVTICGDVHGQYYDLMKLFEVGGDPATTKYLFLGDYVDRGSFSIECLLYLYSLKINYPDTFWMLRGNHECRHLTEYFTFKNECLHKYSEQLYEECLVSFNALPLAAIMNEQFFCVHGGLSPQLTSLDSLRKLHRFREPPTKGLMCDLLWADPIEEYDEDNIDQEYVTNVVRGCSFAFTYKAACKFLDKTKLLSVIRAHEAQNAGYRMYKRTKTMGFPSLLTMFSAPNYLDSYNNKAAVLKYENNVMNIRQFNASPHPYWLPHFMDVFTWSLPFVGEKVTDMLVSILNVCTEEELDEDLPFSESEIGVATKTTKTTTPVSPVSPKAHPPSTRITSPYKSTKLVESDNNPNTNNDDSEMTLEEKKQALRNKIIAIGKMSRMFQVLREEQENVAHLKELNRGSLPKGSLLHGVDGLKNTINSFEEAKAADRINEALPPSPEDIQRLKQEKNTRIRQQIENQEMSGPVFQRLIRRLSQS

[8] = NIH3T3 cell viability loss – ATP luminescence, mouse fibroblasts, counter-screen, dose response (AID 2010); type: functional, cell-based;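 also: cells exposed to compound for about 90 hours before reading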
[9] = target: ATP-dependent molecular chaperone HSP82 (Candida albicans (strain WO-1) (Yeast), UniProt C4YTQ8); assay: steroid-induced GRE reporter decrease in yeast – S. cerevisiae, luminescence, Hsp90 inhibitor project, dose response (AID 2400); type: functional, cell-based;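 also: beta-galactosidase luminescence from glucocorticoid response element reporter as proxy for Hsp90 function; inhibitor potency where signal loss means Hsp90 inhibition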
ATP-dependent molecular chaperone HSP82, sequence (C4YTQ8 whole entry): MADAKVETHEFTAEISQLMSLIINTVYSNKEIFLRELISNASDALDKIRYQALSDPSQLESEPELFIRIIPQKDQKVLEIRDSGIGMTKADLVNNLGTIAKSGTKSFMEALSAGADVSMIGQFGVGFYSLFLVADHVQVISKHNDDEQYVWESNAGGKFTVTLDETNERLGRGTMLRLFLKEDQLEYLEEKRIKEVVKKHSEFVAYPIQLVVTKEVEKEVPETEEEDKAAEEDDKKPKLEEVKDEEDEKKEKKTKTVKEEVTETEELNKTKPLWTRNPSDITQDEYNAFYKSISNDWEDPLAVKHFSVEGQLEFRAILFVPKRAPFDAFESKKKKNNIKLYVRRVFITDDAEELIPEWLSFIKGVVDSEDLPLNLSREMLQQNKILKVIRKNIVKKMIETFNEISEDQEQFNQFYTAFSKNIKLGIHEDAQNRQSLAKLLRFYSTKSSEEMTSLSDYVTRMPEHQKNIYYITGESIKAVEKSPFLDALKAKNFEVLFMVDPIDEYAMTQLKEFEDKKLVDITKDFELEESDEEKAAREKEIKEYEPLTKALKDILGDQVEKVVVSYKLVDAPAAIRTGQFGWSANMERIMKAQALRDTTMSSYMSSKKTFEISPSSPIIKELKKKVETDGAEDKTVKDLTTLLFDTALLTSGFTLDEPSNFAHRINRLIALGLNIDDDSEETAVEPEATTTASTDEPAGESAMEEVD

[10] = viability loss in Vero cells – cytotoxicity control for Vif-APOBEC3G degradation inhibitor project, dose response (AID 1117358); type: functional; details: Vero
[11] = target: NADPH oxidase 1 (Homo sapiens, UniProt Q9Y5S8); assay: Luminescence-based cell-based dose response assay to identify inhibitors of NADPH oxidase 1 (NOX1).; type: functional
NADPH oxidase 1, sequence (Q9Y5S8 whole entry): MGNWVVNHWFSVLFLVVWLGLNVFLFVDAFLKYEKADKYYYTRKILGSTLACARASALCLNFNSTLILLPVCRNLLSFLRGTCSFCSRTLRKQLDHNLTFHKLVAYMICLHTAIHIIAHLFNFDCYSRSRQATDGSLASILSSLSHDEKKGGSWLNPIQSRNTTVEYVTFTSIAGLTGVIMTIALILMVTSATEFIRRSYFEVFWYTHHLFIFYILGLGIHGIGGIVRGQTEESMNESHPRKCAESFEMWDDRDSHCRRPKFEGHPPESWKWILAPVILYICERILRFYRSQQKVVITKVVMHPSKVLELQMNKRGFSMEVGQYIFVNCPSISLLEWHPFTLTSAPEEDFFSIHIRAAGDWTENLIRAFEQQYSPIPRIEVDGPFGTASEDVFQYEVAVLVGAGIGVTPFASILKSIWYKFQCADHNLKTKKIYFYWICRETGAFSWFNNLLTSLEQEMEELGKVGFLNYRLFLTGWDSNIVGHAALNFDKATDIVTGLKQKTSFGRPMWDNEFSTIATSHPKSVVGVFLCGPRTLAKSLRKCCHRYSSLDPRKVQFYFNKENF

[12] = target: Sphingosine 1-phosphate receptor 2 (Homo sapiens, UniProt O95136); assay: Dose Response Cell Based Assay for Agonists of the S1P2 Receptor. [Related pubchem assays: 729, 736, 843 ]; type: functional
Sphingosine 1-phosphate receptor 2, sequence (O95136 whole entry): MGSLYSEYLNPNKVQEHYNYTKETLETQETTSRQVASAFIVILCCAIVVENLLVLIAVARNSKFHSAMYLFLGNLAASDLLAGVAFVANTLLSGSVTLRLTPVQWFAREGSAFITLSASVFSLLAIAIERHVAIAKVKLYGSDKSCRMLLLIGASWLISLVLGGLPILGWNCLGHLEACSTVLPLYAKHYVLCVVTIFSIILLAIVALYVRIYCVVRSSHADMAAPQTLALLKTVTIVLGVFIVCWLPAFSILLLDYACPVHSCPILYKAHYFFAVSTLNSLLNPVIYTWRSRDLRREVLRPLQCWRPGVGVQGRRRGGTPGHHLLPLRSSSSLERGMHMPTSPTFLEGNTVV

[13] = M. tuberculosis H37Rv growth inhibitors, H37Rv strain (AID 1626); type: functional
[14] = target: Epstein-Barr nuclear antigen 1 (Epstein-Barr virus (strain B95-8) (HHV-4) (Human herpesvirus 4), UniProt P03211); assay: inhibition of EBV nuclear antigen 1 DNA binding – biochemical, fluorescence polarization, 1536-well, dose response (AID 2381); parameters: species or system human gammaherpesvirus 4;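 also: fluorescence polarization of a Cy5 DNA probe bound by EBNA-1 protein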
Epstein-Barr nuclear antigen 1, sequence (P03211 whole entry): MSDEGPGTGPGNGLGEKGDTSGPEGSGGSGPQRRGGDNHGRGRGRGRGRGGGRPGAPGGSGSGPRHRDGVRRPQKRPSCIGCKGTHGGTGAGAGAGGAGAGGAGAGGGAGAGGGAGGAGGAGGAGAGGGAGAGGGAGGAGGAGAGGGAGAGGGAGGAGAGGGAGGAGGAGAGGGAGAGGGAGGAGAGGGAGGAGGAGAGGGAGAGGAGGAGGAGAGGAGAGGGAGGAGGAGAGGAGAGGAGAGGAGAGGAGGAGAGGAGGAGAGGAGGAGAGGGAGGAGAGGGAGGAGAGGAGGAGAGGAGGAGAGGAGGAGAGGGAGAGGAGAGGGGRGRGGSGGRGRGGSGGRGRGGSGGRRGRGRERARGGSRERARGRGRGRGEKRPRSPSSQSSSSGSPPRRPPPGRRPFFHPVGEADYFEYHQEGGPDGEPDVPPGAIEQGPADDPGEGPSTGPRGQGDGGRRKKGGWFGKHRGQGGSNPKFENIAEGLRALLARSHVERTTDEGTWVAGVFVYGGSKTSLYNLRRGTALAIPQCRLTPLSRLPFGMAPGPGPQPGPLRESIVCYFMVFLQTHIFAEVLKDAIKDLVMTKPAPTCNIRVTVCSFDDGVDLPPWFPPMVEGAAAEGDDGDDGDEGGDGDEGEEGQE

[15] = target: T2, Calpain-2 catalytic subunit (Sus scrofa, UniProt P43367); assay: m-calpain protease blockers, concentration series – biochemical, fluorogenic peptide substrate, dose response (AID 1420); type: functional
T2 sequence (P43367 whole entry): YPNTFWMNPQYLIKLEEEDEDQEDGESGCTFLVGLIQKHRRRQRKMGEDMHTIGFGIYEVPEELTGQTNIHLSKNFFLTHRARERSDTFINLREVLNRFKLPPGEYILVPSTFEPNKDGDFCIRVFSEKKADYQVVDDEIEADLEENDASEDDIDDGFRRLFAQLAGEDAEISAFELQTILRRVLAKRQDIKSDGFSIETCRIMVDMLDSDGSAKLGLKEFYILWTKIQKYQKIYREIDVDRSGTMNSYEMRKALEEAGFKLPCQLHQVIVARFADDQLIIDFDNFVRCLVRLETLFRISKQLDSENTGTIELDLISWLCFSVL

[16] = target: Lytic switch protein BZLF1 (Epstein-Barr virus (strain B95-8) (HHV-4) (Human herpesvirus 4), UniProt P03206); assay: inhibition of BZLF1 ZTA DNA binding – biochemical, fluorescence polarization, Epstein-Barr virus, 1536-well, counter-screen for EBNA-1 inhibitor project, dose response (AID 2377); parameters: species or system human gammaherpesvirus 4;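 also: fluorescence polarization of Cy5-labelled ZRE DNA probe bound by purified Zta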
Lytic switch protein BZLF1, sequence (P03206 whole entry): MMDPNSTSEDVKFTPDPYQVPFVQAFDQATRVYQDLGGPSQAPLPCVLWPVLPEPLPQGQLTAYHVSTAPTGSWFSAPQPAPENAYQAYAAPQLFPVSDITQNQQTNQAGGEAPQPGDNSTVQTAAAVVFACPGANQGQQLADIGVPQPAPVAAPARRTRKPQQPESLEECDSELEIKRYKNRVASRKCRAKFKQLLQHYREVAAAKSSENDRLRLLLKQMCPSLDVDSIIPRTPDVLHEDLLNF

[17] = target: Luciferin 4-monooxygenase (Photinus pyralis, UniProt P08659); assay: Counter Screen for Luciferase-based Assay Positives. [Related pubchem assays: 620, 618, 411 ]
Luciferin 4-monooxygenase, sequence (P08659 whole entry): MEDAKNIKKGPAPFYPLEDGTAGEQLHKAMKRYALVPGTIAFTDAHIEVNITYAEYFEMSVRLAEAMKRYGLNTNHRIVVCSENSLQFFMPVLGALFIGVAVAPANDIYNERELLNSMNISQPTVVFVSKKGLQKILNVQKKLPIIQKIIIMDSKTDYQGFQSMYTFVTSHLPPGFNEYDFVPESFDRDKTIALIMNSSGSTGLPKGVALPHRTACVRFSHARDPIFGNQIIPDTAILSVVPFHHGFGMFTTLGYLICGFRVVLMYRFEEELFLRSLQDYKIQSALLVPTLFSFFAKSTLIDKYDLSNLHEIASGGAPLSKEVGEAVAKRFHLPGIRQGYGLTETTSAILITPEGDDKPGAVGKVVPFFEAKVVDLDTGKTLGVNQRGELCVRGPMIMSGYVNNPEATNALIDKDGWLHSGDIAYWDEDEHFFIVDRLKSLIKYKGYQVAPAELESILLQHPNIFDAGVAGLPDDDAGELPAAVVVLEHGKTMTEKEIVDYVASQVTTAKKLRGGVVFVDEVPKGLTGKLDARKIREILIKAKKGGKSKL

[18] = target: T3, Microphthalmia-associated transcription factor (Homo sapiens, UniProt O75030); assay: reducers of TRPM1 reporter luminescence, concentration series – cell-based, SK-MEL-5, cherry-picked, set 3, MITF inhibitor project, dose response (AID 493073); type: functional;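 also: SK-MEL-5 melanoma cells with luciferase driven by the MITF target TRPM1 promoter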
T3 sequence (O75030 whole entry): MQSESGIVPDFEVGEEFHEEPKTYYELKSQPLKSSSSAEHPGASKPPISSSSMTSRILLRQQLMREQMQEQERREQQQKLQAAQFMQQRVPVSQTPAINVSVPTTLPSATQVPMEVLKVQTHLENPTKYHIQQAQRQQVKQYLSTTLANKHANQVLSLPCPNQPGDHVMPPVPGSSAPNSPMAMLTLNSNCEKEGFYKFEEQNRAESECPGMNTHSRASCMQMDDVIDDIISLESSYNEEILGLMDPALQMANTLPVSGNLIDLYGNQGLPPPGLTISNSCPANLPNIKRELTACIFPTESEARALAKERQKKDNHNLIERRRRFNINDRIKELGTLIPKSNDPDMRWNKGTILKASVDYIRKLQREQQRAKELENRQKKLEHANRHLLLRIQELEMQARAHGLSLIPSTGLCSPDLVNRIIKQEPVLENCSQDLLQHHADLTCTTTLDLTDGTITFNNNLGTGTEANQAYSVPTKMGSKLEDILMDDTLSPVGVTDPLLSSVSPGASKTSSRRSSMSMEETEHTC

[19] = target: Genome polyprotein (dengue virus type 2, UniProt P29990); assay: flavivirus cap methylation enzyme inhibition – biochemical, confirmation dose response, primary screen (AID 588689); type: functional
Genome polyprotein, sequence (P29990 2492-3391 limits assumed): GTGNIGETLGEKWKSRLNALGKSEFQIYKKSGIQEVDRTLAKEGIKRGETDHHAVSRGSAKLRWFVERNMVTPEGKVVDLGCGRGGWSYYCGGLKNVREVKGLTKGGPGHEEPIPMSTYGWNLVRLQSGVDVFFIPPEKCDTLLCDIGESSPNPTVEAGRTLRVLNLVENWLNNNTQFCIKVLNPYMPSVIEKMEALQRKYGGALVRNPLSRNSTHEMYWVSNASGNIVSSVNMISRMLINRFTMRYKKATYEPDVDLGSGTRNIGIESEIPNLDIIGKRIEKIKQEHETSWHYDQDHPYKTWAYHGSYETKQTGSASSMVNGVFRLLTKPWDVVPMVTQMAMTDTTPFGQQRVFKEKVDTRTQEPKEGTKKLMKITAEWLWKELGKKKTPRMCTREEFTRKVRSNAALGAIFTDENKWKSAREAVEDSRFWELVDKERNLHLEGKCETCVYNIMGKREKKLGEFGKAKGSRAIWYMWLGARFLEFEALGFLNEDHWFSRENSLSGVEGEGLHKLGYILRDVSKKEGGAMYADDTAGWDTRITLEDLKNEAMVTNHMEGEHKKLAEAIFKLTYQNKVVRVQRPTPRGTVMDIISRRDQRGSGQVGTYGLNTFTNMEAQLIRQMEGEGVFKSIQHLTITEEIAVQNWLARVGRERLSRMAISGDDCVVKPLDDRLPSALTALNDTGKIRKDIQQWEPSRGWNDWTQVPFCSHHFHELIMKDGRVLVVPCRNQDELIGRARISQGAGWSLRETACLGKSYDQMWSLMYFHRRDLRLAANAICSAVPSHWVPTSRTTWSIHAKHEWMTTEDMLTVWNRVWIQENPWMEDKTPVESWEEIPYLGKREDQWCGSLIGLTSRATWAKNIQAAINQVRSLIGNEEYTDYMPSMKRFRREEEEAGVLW

[20] = viability of uninfected HEp-2 cells – cell-based, HTS, cytotoxicity control for RSV inhibitor project, dose response (AID 2410); type: functional; details: human respiratory syncytial virus
[21] = cells

## CC(=O)O/N=C/c1c(N2CCOCC2)n(C)c2ccccc12
[1]
  EC50: > 160 µM (inactive)
[2]
  EC50: > 120 µM (not active)
[3]
  EC50: > 120 µM (not active)
[4]
  EC50: 38.6 µM (active)
[5]
  EC50: 0.145 µM (active)
[6]
  EC50: 1.25 µM (active)
[7]
  EC50: > 180 µM (inactive)
[8]
  EC50: 4.45 µM (active)
[9]
  EC50: > 160 µM (inactive)
[10]
  CC50: > 40 µM (active)

## CCN(CC)c1ccc(NC(=O)Nc2ccccc2C(F)(F)F)cc1
[11]
  IC50: 0.354 µM (active)
[12]
  EC50: > 50 µM (not active)

## Cc1nc(NC(=O)CSc2nnc(-c3ccc4c(c3)OCO4)o2)c(Cl)cc1Cl
[13]
  IC50: > 100 µM (active)

## CCOc1ccc(Nc2nnc(SCc3nc(O)c4ccccc4n3)s2)cc1
[14]
  IC50: 27 µM (not active)
[15]
  IC50: 29.2 µM (not active)
[16]
  IC50: > 111 µM (not active)

## O=C(NCc1cccs1)c1nc2c(nnn2Cc2ccccc2Cl)c(=O)[nH]1
[17]
  EC50: 15.4 µM (active)
[18]
  AC50: 6.66 µM (active)
[19]
  IC50: 51.8 µM (active)

## O=C(c1ccc(C(=O)N2CCCc3ccccc32)s1)N1CCCc2ccccc21
[1]
  EC50: 20.7 µM (inconclusive)
[20]
  CC50: > 50 µM (active)
[5]
  EC50: 2.45 µM (active)
[21]
  IC50: > 50 µM (active)

## CN(C)c1ccc(NC(=O)Nc2cccc3ccccc23)cc1
[11]
  IC50: 0.464 µM (active)
